The format of data set [1] is physicochemical. As to the method:
A composition is prepared for a dilute bathing formulation of xylitol for nasal delivery. The concentration of xylitol in the solution may be 10%-60% by weight/volume. This corresponds to 10-60 grams of xylitol per 100 ml of solution. xylitol is soluble in solution up to 64.2 grams per 100 ml of solution.

For a further data set, the system named is Streptococcus pneumonia. The settings on record: during its logarithmic growth phase; cited from earlier work.

`OC[C@@H](O)[C@H](O)[C@@H](O)CO` [xylitol]: the soluble in solution result in data set [1] is “up to 64.2 grams per 100 ml of solution”. For the same compound, the “growth of Streptococcus pneumonia in vitro” value with Streptococcus pneumonia is on record as “inhibits the growth”.

(Values after patent US6599883B1, “Nasal delivery of xylitol” (Nastech Pharmaceutical Company, Inc., priority 1998, dated 2003).)
